Measured values taken from ChEMBL document CHEMBL5537181 (J Med Chem, 2024).
Calls of active or inactive are those of the source.

Key:
Type in all cases: functional, organism-based
[1] = test system: Rattus norvegicus; assay: Analgesic activity in Chronic constriction injury rat model assessed as increase in paw withdrawal threshold at 30 mg/kg,po administration and measured for 0.5 to 48 hrs; conditions: time 0.5-48 hrs
[2] = test system: Rattus norvegicus; assay: Analgesic activity in Chronic constriction injury rat model assessed as increase in paw withdrawal latency at 30 mg/kg,po administration and measured for 0.5 to 48 hrs; conditions: time 0.5-48 hrs
[3] = test system: Rattus norvegicus; assay: Analgesic activity in Chronic constriction injury rat model assessed as increase in paw withdrawal threshold at 5 mg/kg,IM administration and measured for 0.5 to 48 hrs; conditions: time 0.5-48 hrs
[4] = test system: Rattus norvegicus; assay: Analgesic activity in Chronic constriction injury rat model assessed as increase in paw withdrawal latency at 5 mg/kg,IM administration and measured for 0.5 to 48 hrs; conditions: time 0.5-48 hrs
[5] = test system: Rattus norvegicus; assay: Antinociceptive activity in Chronic constriction injury rat model assessed as reduction in pain at 5 mg/kg,IM administration and measured after 2 hrs
[6] = test system: Rattus norvegicus; assay: Antinociceptive activity in Chronic constriction injury rat model assessed as reduction in pain at 5 mg/kg,IM administration and measured after 12 hrs

Measured: Activity

CC(C)C[C@H](CN)CC(=O)O
active: [1] | [2]

CN1CC[C@]23c4c5ccc(O)c4O[C@H]2[C@@H](O)C=C[C@H]3[C@H]1C5
active: [3] | [4] | [5] | [6]
